{"source": "ChEMBL document CHEMBL1124525", "about": "“Hexestrol-linked cytotoxic agents: synthesis and binding affinity for estrogen receptors” (J Med Chem, 1989)", "key": {"[1]": {"target": "T1, Estrogen receptor (Rattus norvegicus) (UniProt P06211+Q62986)", "assay": "Binding affinity to estrogen receptor", "format": "protein assay"}, "[2]": {"target": "T1, Estrogen receptor (Rattus norvegicus)", "assay": "Relative binding affinity for estrogen receptor", "format": "protein assay"}}, "data": [{"smiles": "CC[C@](C)(c1ccc(O)cc1)[C@H](CCCCNCCCl)c1ccc(O)cc1", "note": "(relative stereo)", "values": [{"measurement": "relative binding affinity (RBA)", "setting": "[1]", "value": 1}]}, {"smiles": "CC[C@](C)(c1ccc(O)cc1)[C@H](CCCCN(CCCl)CCCl)c1ccc(O)cc1", "note": "(relative stereo)", "values": [{"measurement": "relative binding affinity (RBA)", "setting": "[1]", "value": 2.5}]}, {"smiles": "CC[C@@](C)(c1ccc(O)cc1)[C@H](CCCCBr)c1ccc(O)cc1", "note": "(relative stereo)", "values": [{"measurement": "relative binding affinity (RBA)", "setting": "[1]", "value": 1}]}, {"smiles": "CC[C@@](C)(c1ccc(O)cc1)[C@H](CCCCOCCOCCOCCCl)c1ccc(O)cc1", "note": "(relative stereo)", "values": [{"measurement": "relative binding affinity (RBA)", "setting": "[1]", "value": 0.5}]}, {"smiles": "CC[C@@](C)(c1ccc(O)cc1)[C@H](CCCC(=O)NC)c1ccc(O)cc1", "values": [{"measurement": "relative binding affinity (RBA)", "setting": "[1]", "value": 0.2}]}, {"smiles": "CC[C@@](C)(c1ccc(O)cc1)[C@H](CCCCOCCOCCO)c1ccc(O)cc1", "values": [{"measurement": "relative binding affinity (RBA)", "setting": "[1]", "value": 1}]}, {"smiles": "CC[C@@](C)(c1ccc(O)cc1)[C@H](CCCCNC(=O)N(CCCl)N=O)c1ccc(O)cc1", "values": [{"measurement": "relative binding affinity (RBA)", "setting": "[1]", "value": 1}]}, {"smiles": "CC[C@@](C)(c1ccc(O)cc1)[C@H](CCCCOCCO)c1ccc(O)cc1", "values": [{"measurement": "relative binding affinity (RBA)", "setting": "[1]", "value": 1}]}, {"smiles": "CCCC[C@H](c1ccc(O)cc1)[C@@](C)(CC)c1ccc(O)cc1", "note": "(relative stereo)", "values": [{"measurement": "relative binding affinity (RBA)", "setting": "[1]", "value": 1}]}, {"smiles": "CC[C@@](C)(c1ccc(O)cc1)[C@H](CCCCOCCOCCCl)c1ccc(O)cc1", "note": "(relative stereo)", "values": [{"measurement": "relative binding affinity (RBA)", "setting": "[1]", "value": 1}]}, {"smiles": "CC[C@@](C)(c1cc(Br)c(O)c(Br)c1)[C@H](CCCCO)c1ccc(O)c(Br)c1", "values": [{"measurement": "relative binding affinity (RBA)", "setting": "[1]", "value": 0.1}]}, {"smiles": "CC[C@@](C)(c1ccc(O)cc1)[C@H](CCCC(=O)NCCO)c1ccc(O)cc1", "values": [{"measurement": "relative binding affinity (RBA)", "setting": "[1]", "value": 0.1}]}, {"smiles": "CC[C@@](C)(c1ccc(O)cc1)[C@H](CCCC(=O)N(CCO)CCO)c1ccc(O)cc1", "values": [{"measurement": "relative binding affinity (RBA)", "setting": "[1]", "value": 0.2}]}, {"smiles": "CC[C@@](C)(c1ccc(O)cc1)[C@H](CCCCN1CCCOP1(=O)N(CCCl)CCCl)c1ccc(O)cc1", "note": "(relative stereo)", "values": [{"measurement": "relative binding affinity (RBA)", "setting": "[1]", "value": 1}]}, {"smiles": "CC[C@@](C)(c1ccc(O)cc1)[C@H](CCCCN)c1ccc(O)cc1", "note": "(relative stereo)", "values": [{"measurement": "relative binding affinity (RBA)", "setting": "[1]", "value": 2}]}, {"smiles": "CC[C@@](C)(c1ccc(O)cc1)[C@H](CCCC(N)=O)c1ccc(O)cc1", "values": [{"measurement": "relative binding affinity (RBA)", "setting": "[1]", "value": 0.9}]}, {"smiles": "CC[C@@](C)(c1ccc(O)cc1)[C@H](CCCCC=O)c1ccc(O)cc1", "values": [{"measurement": "relative binding affinity (RBA)", "setting": "[1]", "value": 1}]}, {"smiles": "CC[C@@](C)(c1ccc(O)cc1)[C@H](CCCC(=O)O)c1ccc(O)cc1", "values": [{"measurement": "relative binding affinity (RBA)", "setting": "[2]", "value": 0.1}]}, {"smiles": "CC[C@@](C)(c1ccc(O)cc1)[C@H](CCCC=O)c1ccc(O)cc1", "values": [{"measurement": "relative binding affinity (RBA)", "setting": "[1]", "value": 1}]}, {"smiles": "CC[C@@](C)(c1ccc(O)cc1)[C@H](CCCCI)c1ccc(O)cc1", "note": "(relative stereo)", "values": [{"measurement": "relative binding affinity (RBA)", "setting": "[1]", "value": 0.2}]}, {"smiles": "CC[C@@](C)(c1ccc(O)cc1)[C@H](CCCC(=O)OC)c1ccc(O)cc1", "values": [{"measurement": "relative binding affinity (RBA)", "setting": "[1]", "value": 0.2}]}, {"smiles": "CC[C@@](C)(c1ccc(O)cc1)[C@H](CCCCO)c1ccc(O)cc1", "note": "(relative stereo)", "values": [{"measurement": "relative binding affinity (RBA)", "setting": "[1]", "value": 1.5}]}, {"smiles": "CCSCCCCC(c1ccc(O)cc1)C(C)(CC)c1ccc(O)cc1", "note": "(stereo unspecified)", "values": [{"measurement": "relative binding affinity (RBA)", "setting": "[1]", "value": 0.2}]}, {"smiles": "CC[C@@](C)(c1ccc(O)cc1)[C@H](CCCCOCCCl)c1ccc(O)cc1", "note": "(relative stereo)", "values": [{"measurement": "relative binding affinity (RBA)", "setting": "[1]", "value": 0.3}]}, {"smiles": "CC[C@@](C)(c1ccc(O)cc1)[C@H](CCCCCl)c1ccc(O)cc1", "note": "(relative stereo)", "values": [{"measurement": "relative binding affinity (RBA)", "setting": "[1]", "value": 1.5}]}, {"smiles": "CC[C@@](C)(c1ccc(O)cc1)[C@H](CCCCSCCO)c1ccc(O)cc1", "note": "(relative stereo)", "values": [{"measurement": "relative binding affinity (RBA)", "setting": "[1]", "value": 0.4}]}, {"smiles": "CC[C@@](C)(c1ccc(O)cc1)[C@H](CCCCOC(C)=O)c1ccc(O)cc1", "values": [{"measurement": "relative binding affinity (RBA)", "setting": "[1]", "value": 1}]}, {"smiles": "CC[C@@](C)(c1ccc(O)cc1)[C@H](CCCCOCCOCCOCCO)c1ccc(O)cc1", "values": [{"measurement": "relative binding affinity (RBA)", "setting": "[1]", "value": 1}]}, {"smiles": "C=CCCC[C@H](c1ccc(O)cc1)[C@@](C)(CC)c1ccc(O)cc1", "note": "(relative stereo)", "values": [{"measurement": "relative binding affinity (RBA)", "setting": "[1]", "value": 1}]}, {"smiles": "CC[C@@](C)(c1ccc(O)cc1)[C@H](CCCCOS(C)(=O)=O)c1ccc(O)cc1", "values": [{"measurement": "relative binding affinity (RBA)", "setting": "[1]", "value": 0.3}]}, {"smiles": "CC[C@@](C)(c1ccc(O)cc1)[C@H](CCCCN(CCO)CCO)c1ccc(O)cc1", "note": "(relative stereo)", "values": [{"measurement": "relative binding affinity (RBA)", "setting": "[1]", "value": 0.9}]}]}
